Patent publication US7803930B2, “Antisense modulation of apolipoprotein B-expression” (Isis Pharmaceuticals, Inc., priority 2002, dated 2010)
In the oligonucleotide strings, read from the 5' end, every base follows the letter of its sugar. An asterisk marks phosphorothioate; unmarked linkages are phosphodiester. Other units and linkages are bracketed, terminal groups are in braces. A string of capitals states the bases alone. e = 2'-O-(2-methoxyethyl) (MOE); [5mC] = 5-methylcytosine; d = 2'-deoxy (DNA)

What was measured:
[1] = test system: human apolipoprotein B mRNA; test: Inhibition of apolipoprotein B mRNA by dsRNAs in HepG2 cells; format: cell-based; details: 150 nM with 3.75 μg/mL LIPOFECTIN
Protocol: In accordance with the present invention, a series of nucleic acid duplexes comprising the antisense compounds of the present invention and their complements were designed to target apolipoprotein B and are shown in Table 42. All compounds in Table 42 are oligoribonucleotides 20 nucleotides in length with phosphodiester internucleoside linkages (backbones) throughout the compound. The compounds were prepared with blunt ends. […] These sequences are shown to contain uracil (U) but one of skill in the art will appreciate that uracil (U) is generally replaced by thymine (T) in DNA sequences. “Targer site” indicates the first (5′-most) nucleotide number on the particular target sequence to which the compound binds. A subset of the compounds in Table 42 are the RNA equivalents of DNA antisense oligonucleotides described herein, and, where applicable, this is noted by the ISIS # of the DNA oligonucleotide in the column “RNA equivalent of ISIS #”.
The dsRNA compounds in Table 42 were tested for their effects on human apolipoprotein mRNA in HepG2 cells. HepG2 cells were treated with 100 nM of dsRNA compounds mixed with 5 μg/mL LIPOFECTIN (Invitrogen Corporation, Carlsbad, Calif.) for a period of 16 hours. In the same experiment, HepG2 cells were also treated with 150 nM of subset of the antisense oligonucleotides described herein mixed with 3.75 μg/mL LIPOFECTIN; these compounds are listed in Table 43. Control oligonucleotides included ISIS 18078 ([…], SEQ ID NO: 888). ISIS 18078 is a chimeric oligonucleotide (“gapmer”) 20 nucleotides in length, composed of a central “gap” region consisting of 9 2′-deoxynucleotides, which is flanked on the 5′ and 3′ ends by a five-nucleotide “wing” and a six-nucleotide “wing”, respectively. The wings are composed of 2′-methoxyethyl (2′-MOE)nucleotides. The internucleoside (backbone) linkages are phosphorothioate (P═S) throughout the oligonucleotide. All cytidines are 5-methylcytidines. The duplex of ISIS 263188 ([…], SEQ ID NO: 889) and its complement was also used as a control. ISIS 263188 is an oligoribonucleotide 21 nucleotides in length with the 2 nucleotides on the 3′ end being oligodeoxyribonucleotides (TT) and with phosphodiester internucleoside linkages (backbones) throughout the compound.
Cells were treated for 4 hours, after which human apolipoprotein B mRNA expression was measured as described by examples herein. Results were normalized to untreated control cells, which were not treated with LIPOFECTIN or oligonucleotide.

[2] = test system: human apolipoprotein B mRNA; test: C57BL/6NTac-TgN(APOB100) transgenic mice, 8 weeks (Example 47): human apolipoprotein B mRNA in liver; format: in vivo, human transgene in mouse; details: C57BL/6NTac-TgN(APOB100) mice, 25 mg/kg i.p. twice a week, eight weeks; for mRNA % control, human mRNA: liver
Protocol: C57BL/6NTac-TgN(APOB100) mice were divided into two groups—one group receiving oligonucleotide treatment and control animals receiving saline treatment. After overnight fasting, mice were dosed intraperitoneally twice a week with saline or 25 mg/kg ISIS 281625 (SEQ ID No: 224) or ISIS 301012 (SEQ ID No: 247) for eight weeks. At study termination and forty eight hours after the final injections, animals were sacrificed and evaluated for target mRNA levels in liver, cholesterol and triglyceride levels, and liver enzyme levels. In addition, the endogenous mouse apolipoprotein B levels in liver were measured to evaluate any effects of these antisense oligonucletides targeted to the human apolipoprotein B.

Row | Substance | % Inhibition of apolipoprotein B mRNA [1] [%] | mRNA levels of the human apolipoprotein B in liver [2] | mRNA % control, human mRNA [2] [% control]
1 | 301027 (eG*e[5mC]*eT*e[5mC]*eA*d[5mC]*dT*dG*dT*dA*dT*dG*dG*dT*dT*eT*eT*eA*eT*e[5mC]; antisense) [compound 301027] | 79 |  | 
2 | ISIS 281625: SEQ ID NO: 224, 2′-MOE gapmer targeted to human apolipoprotein B (antisense eA*eG*eG*eT*eT*dA*d[5mC]*d[5mC]*dA*dG*d[5mC]*d[5mC]*dA*d[5mC]*dA*eT*eG*e[5mC]*eA*eG) |  | markedly decreased | 
3 | 301012 (eG*e[5mC]*e[5mC]*eT*e[5mC]*dA*dG*dT*d[5mC]*dT*dG*d[5mC]*dT*dT*d[5mC]*eG*e[5mC]*eA*e[5mC]*e[5mC]) [compound 301012] | 77 |  | 23.7
4 | ISIS 301012: SEQ ID NO: 247, antisense oligonucleotide targeted to human apolipoprotein B (antisense GCCTCAGTCTGCTTCGCACC; chemistry not given here) |  | markedly decreased | 
5 | 281625 (antisense eA*eG*eG*eT*eT*dA*d[5mC]*d[5mC]*dA*dG*d[5mC]*d[5mC]*dA*d[5mC]*dA*eT*eG*e[5mC]*eA*eG) [compound 281625] | 79 |  | 45.2
